In PMC6240685, “Strong Inhibitory Effect, Low Cytotoxicity and High Plasma Stability of Steroidal Inhibitors of N-Methyl-D-Aspartate Receptors With C-3 Amide Structural Motif” (Frontiers in Pharmacology, 2018):
pIC50: −log10 of the molar value. Where two headings read alike, the source gives them in different places.

System: HepG2 cells
Experiment: Mitotoxicity, XTT viability in glucose vs galactose medium
Conditions: Homo sapiens, HepG2, 24 h
Protocol: (A) Hepatotoxicity provoked by compound 4 was assessed after 72 h incubation of HepG2 cells in low glucose medium (5 mM) in the presence of compound 4 (0.25–100 μM). (B) Mitochondrial toxicity was determined after 24 h incubation of HepG2 cells in either high glucose medium (25 mM) or galactose medium (10 mM) in the presence of compound 4 (2.5–150 μM). Cell viabilities were recorded in triplicates in three independent experiments and expressed as percentage of vehicle control ± SD and IC50 values were determined by GraphPad Prism software using following equation: Y = Bottom + (Top–Bottom)/(1 + 10ˆ((LogIC50-X)^∗HillSlope)), where IC50 is the concentration of compound 4 that inhibits cell viability half way between Bottom and Top plateaus, X is compound 4 concentration and HillSlope describes the steepness of the family of curves. […] (C) Concentration-dependent effect on ROS level. HepG2 cells were treated with compound 4 (0.25–100 μM) for 72 h, and then the intracellular level of total ROS in relative fluorescence units (RFU) was detected. The data are presented as the mean ± SD for at least three independent experiments and each experiment was carried out in triplicate. Final concentration of DMSO in samples was 1%. […] Single asterisks (^∗) indicate a significant difference (P < 0.05) compared to 1% DMSO control (one-way ANOVA with Dunnett’s post-test).
HepG2 cells (ATCC®, United Kingdom) were grown in complete Minimal Essential Medium (EMEM) (5.5 mM glucose) medium, supplemented with 10% (v/v) fetal calf serum, 200 μg/mL of streptomycin, 200 U/mL of penicillin G and 4 mM glutamine. They were cultured under a humidified atmosphere containing 5% CO2 at 37°C.
The cytotoxicity of the tested compounds was assessed with use of XTT cell proliferation kit II (Roche Diagnostics GmbH, Mannheim, Germany) according to the manufacturer’s instructions. Briefly HepG2 cells were seeded in a 96-well plate at a density of 22,000 cells per well. After 24 h, the tested neurosteroids in a concentration range from 0.5 to 200 μM were added to the culture media and incubated for 72 h before the XTT dye was added. Mitochondrial toxicity was assessed in HepG2 cells using glucose and galactose conditioned media and XTT assay as a read out for cell viability. In brief, cells were seeded onto 96 well, clear bottom tissue culture plates at a density of 22,000 cells/well and left overnight to attach. Six hours prior to the neurosteroids treatment the media was replaced with 100 μL DMEM media containing either glucose (25 mM glucose; 1 mM pyruvate; 2 mM glutamine, 10% FBS) or galactose (10 mM galactose, 1 mM pyruvate, 6 mM glutamine, 10% FBS). After that, the tested neurosteroids in a concentration range from 0.5 to 200 μM were added in the fresh appropriate assay medium (glucose or galactose) and incubated for 24 h before the XTT dye was added. The XTT absorbance was recorded at 495 nm after 1 h incubation with the dye. Compounds were dissolved in DMSO to produce the stock solutions at the concentration of 10 mM, with exception of PAG, 1, 6 (5 mM), and 11 (2.5 mM). Results were expressed as percentages of change in viability compared to appropriate DMSO control. IC50 values were determined by GraphPad Prism version 5.00 for Windows (GraphPad Software, La Jolla, CA, United States). All experiments were done in triplicates in three independent experiments to check the reproducibility.

C[C@@]12CCC[C@H]1[C@@H]1CC[C@@H]3C[C@H](NC(=O)[C@@H](N)CC(=O)O)CC[C@]3(C)[C@H]1CC2 [Compound 6, (S)-3-amino-4-(((3R,5R,8S,9S,10S,13S,14S)-10,13-dimethylhexadecahydro-1H-cyclopenta[a]phenanthren-3-yl)amino)-4-oxobutanoic acid]
pIC50 (read-out: Mitotoxicity IC50, 10 mM galactose): < 3.70
pIC50 (read-out: Mitotoxicity IC50, 25 mM glucose): < 3.70
